# Read-outs that look alike come from different tables or passages of the source.
# Legend:
# murine leukaemia L1210 = experiment: Cytotoxicity for L1210 cells in culture (Microculture Tetrazolium Assay); format: cell-based; settings: Mus musculus, four doubling periods (48 hours)
# Procedure: A cell line, murine leukaemia L1210, was used. The cells are cultivated in a complete culture medium RPMI 1640, containing 10% foetal calf serum, 2 mM glutamine, 50 units/ml penicillin, […] streptomycin and 10 mM Hepes, pH: 7.4. The cells are distributed on microplates and exposed to the cytotoxic compounds for four doubling periods, that is 48 hours. The number of viable cells is then quantified by a colorimetric assay, the Microculture Tetrazolium Assay (J. Carmichael et al., Cancer Res., 47, 936-942, (1987)). The results are expressed as IC50, the concentration of cytotoxic agent that inhibits the proliferation of treated cells by 50%.
# P388 (murine leukaemia) = experiment: Anti-tumour activity in vivo against line P388; parameters: species or system murine; B6D2F1 mice
# From the text: (§1) In this Example, the compounds were suspended in Tween 80, then diluted with water. The concentration of Tween is at a maximum of 1% at the strongest doses. The control animals received the carrier only.
# Line P388 (murine leukaemia) was supplied by the National Cancer Institute (Frederick, U.S.A.). The tumour cells (10^6 cells) were inoculated on day 0 into the peritoneal cavity of female B6D2F1 mice (Iffa-Credo, France). Eight to ten mice, of a weight ranging from 18 to 20 g, were used for each experimental group. The compounds were administered via the intraperitoneal route on day 1 or once a day for 4 days (D1-4), and by the intravenous route on day 1.
# The anti-tumour activity is expressed as a T/C %: [formula]
# Table 2 indicates the anti-tumour activity achieved at the optimum doses for each scheme and administration route.
# colon 38 = experiment: Anti-tumour activity in vivo against colon 38; parameters: species or system B6D2F1 mice; settings: for median T/C % (tumour volume on D21): D2,9, i.p.
# Procedure: as §1
# Colon 38 (supplied by NCI, Frederick, U.S.A.) was inserted in the form of fragments by the subcutaneous route (s.c.) into female B6D2F1 mice. The compounds were administered by the i.p. route on D2 and D9 and the anti-tumour activity was determined on D21 by measuring the rumour volume (T/C volume, %). [formula]
# [1] = system: HT-29 tumour cells (human colon adenocarcinoma); experiment: HT-29 xenograft in hairless mice; format: in vivo, human tumour in hairless mice
# From the text: as §1
# HT-29 tumour cells originating from a human colon adenocarcinoma (American Type Culture Collection, U.S.A.) are inoculated by the subcutaneous route into hairless female mice (Iffa Credo, France). The tumour is then amplified by successive passages of tumour fragments of 2-3 mm^3 implanted bilaterally by the subcutaneous route in the animals' flanks. […] The animals are weighed and their tumour is measured twice a week.
# The tumour volume is calculated in accordance with the following formula: [formula]
# The results are expressed as the median relative tumour volume: [formula]
# The anti-tumour activity of the compound administered is evaluated by the minimum value of the median T/C calculated at time t: [formula]
# The minimum value of this parameter is evaluated a minimum of 7 days after the last treatment in accordance with EORTC (European Organization for the […]) standards.
# (§2) The animals are treated by the i.p. route by weekly administration for 2 weeks of the compound of Example 1. D0 corresponds to the first time the tumours are measured and the first administration of compound.
# [2] = Body weight change of hairless mice bearing HT-29 xenograft; format: in vivo; settings: 6.25 mg/kg, D0,7, i.p.
# From the text: HT-29 tumour cells originating from a human colon adenocarcinoma (American Type Culture Collection, U.S.A.) are inoculated by the subcutaneous route into hairless female mice (Iffa Credo, France). The tumour is then amplified by successive passages of tumour fragments of 2-3 mm^3 implanted bilaterally by the subcutaneous route in the animals' flanks. When the tumour has reached a size of 50 mm^3 (that is between 7 and 10 days after the graft), the animals are randomised into groups of 7 to 10 mice and treated in accordance with the protocol indicated. The animals are weighed and their tumour is measured twice a week.
# as §2
# Solubility = format: physicochemical; settings: prevents i.v. testing
# [3] = background statement; prevented i.v. administration; cited from earlier work
# [4] = J. H. Scarffe et al.; cited from earlier work
# [5] = cited from earlier work
# experimental models = settings: especially against solid tumours, G. H. Svoboda et al.; cited from earlier work
compound,measurement,setting,value
"COc1cc2c(c3c1c(=O)c1ccccc1n3C)[C@@H](OC(C)=O)[C@@H](OC(C)=O)C(C)(C)O2 (relative stereo) [Example 1, (±)-cis-1,2-diacetoxy-1,2-dihydro-acronycine]",IC50,murine leukaemia L1210,4.9 µM
same,T/C % (survival),"P388 (murine leukaemia); D1, i.p., optimum dose 25 mg/kg",289%
same,T/C % (survival),"P388 (murine leukaemia); D1, i.v., optimum dose 25 mg/kg",220%
same,T/C % (survival),"P388 (murine leukaemia); D1-4, i.p., optimum dose 12.5 mg/kg",172%
same,activity against P388 (in words),P388 (murine leukaemia); i.p. and i.v. routes,extremely active
same,activity against colon 38 compared with 5-fluoro-uracil (in words),colon 38; 25 mg/kg versus 5-fluoro-uracil at 80 mg/kg,as active at 25 mg/kg as 5-fluoro-uracil
same,median T/C % (tumour volume on D21),colon 38; 6.25 mg/kg,12%
same,median T/C % (tumour volume on D21),colon 38; 12.5 mg/kg,8%
same,median T/C % (tumour volume on D21),colon 38; 25 mg/kg,1%
same,activity against colon 38 (in words),colon 38; i.p.,very active
same,Minimum median T/C % (day),"[1]; 6.25 mg/kg, D0,7, i.p., minimum at D32",46%
same,activity against HT-29 (in words),"[1]; i.p., weekly for 2 weeks",active against that very resistant tumour
same,Δ weight (D10-D0),[2],-1.1 g
"COc1cc2c(c3c1c(=O)c1ccccc1n3C)[C@H](OC(=O)c1ccccc1)[C@@H](OC(=O)c1ccccc1)C(C)(C)O2 (relative stereo) [Example 3, (±)-trans-1,2-dibenzoyloxy-1,2-dihydro-acronycine]",IC50,murine leukaemia L1210,3.4 µM
"COc1cc2c(c3c1c(=O)c1ccccc1n3C)[C@@H](O)[C@@H](OC(=O)c1ccccc1)C(C)(C)O2 (relative stereo) [Example 5, (±)-cis-2-benzoyloxy-1-hydroxy-1,2-dihydro-acronycine]",IC50,murine leukaemia L1210,7.1 µM
same,T/C % (survival),"P388 (murine leukaemia); D1, i.p., optimum dose 12.5 mg/kg",258%
"COc1cc2c(c3c1c(=O)c1ccccc1n3C)[C@@H](OC(C)=O)[C@@H](OC(=O)c1ccccc1)C(C)(C)O2 (relative stereo) [Example 6, (±)-cis-1-acetoxy-2-benzoyloxy-1,2-dihydro-acronycine]",IC50,murine leukaemia L1210,5 µM
"COc1cc2c(c3c1c(=O)c1ccccc1n3C)[C@H]1OC(=O)O[C@H]1C(C)(C)O2 (relative stereo) [Example 7, (±)-cis-1,2-carbonyldioxy-1,2-dihydro-acronycine]",IC50,murine leukaemia L1210,0.2 µM
same,T/C % (survival),"P388 (murine leukaemia); D1, i.p., optimum dose 50 mg/kg",269%
"O=c1[nH]cc(F)c(=O)[nH]1 [5-fluoro-uracil, reference compound]",median T/C % (tumour volume on D21),colon 38; 80 mg/kg,0%
COc1cc2c(c3c1c(=O)c1ccccc1n3C)C=CC(C)(C)O2 [acronycine],IC50,murine leukaemia L1210,27 µM
same,T/C % (survival),"P388 (murine leukaemia); D1, i.p., optimum dose 200 mg/kg",125%
same,T/C % (survival),"P388 (murine leukaemia); D1-4, i.p., optimum dose 100 mg/kg",136%
same,activity against P388 (in words),"P388 (murine leukaemia); i.p. route, at far stronger doses",weak activity
same,median T/C % (tumour volume on D21),colon 38; 100 mg/kg,77%
same,median T/C % (tumour volume on D21),colon 38; 200 mg/kg,61%
same,solubility (in words),Solubility,completely insoluble
same,solubility (in words),[3],insolubility
same,clinical response,[4],little response
same,oral bioavailability (in words),[5],poor bioavailability
same,anti-tumour spectrum (in words),experimental models,broad spectrum of activity
